This note sets out measurements from PubChem BioAssay AID1552 (Sanford-Burnham Center for Chemical Genomics, 2009).

Calls of active or inactive are those of the source. The rule behind the calls is not given here. Bounds are passed on as bounds.

Sequence of Ubiquitin-conjugating enzyme E2 N (Homo sapiens) (P61088 whole entry, looked up): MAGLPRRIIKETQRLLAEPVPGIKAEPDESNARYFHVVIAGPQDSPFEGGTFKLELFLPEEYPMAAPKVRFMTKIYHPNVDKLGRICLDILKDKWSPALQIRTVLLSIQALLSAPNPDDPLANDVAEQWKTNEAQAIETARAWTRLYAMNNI

This experiment concerns the target Ubiquitin-conjugating enzyme E2 N (Homo sapiens) (UniProt P61088). Kind of experiment: NMR detection of UBE2N ligand binding – biophysical, purified protein (AID 1552). As to conditions: NMR binding to purified UBE2N.
For `NC(=S)NC(=O)CN1C(=O)c2ccccc2C1=O`, the Kd is > 4 mM (inactive). The same measure for `O=C(O)c1ccccc1C(=O)Nc1ccccc1`: > 4 mM (inactive). The same measure for `Cn1c(=O)c2[nH]c(Nc3ccccc3)nc2n(C)c1=O`: > 4 mM (inactive); for `CC(=O)O[C@@H]1CC2C(C)(C)[C@H](O)C[C@H](O)[C@]2(C)C2CC[C@@]3(C)C(=CC(=O)O[C@H]3c3ccoc3)[C@@]21C` (some centres not stated): > 4 mM (inactive); for `Cc1cccc(-c2nnc(-c3ccc(N)cc3)o2)c1`: > 4 mM (inactive). The same measure for `Oc1ccc(C(=S)N2CCOCC2)cc1`: > 4 mM (inactive).

In the case of `O=C1NC(=S)NC(=O)C1=Cc1ccccc1O`, the Kd was > 4 mM (inactive). The same measure for `S=c1oc(-c2ccncc2)nn1CCc1ccncc1`: > 4 mM (inactive); for `Cc1cc(C)n(/N=C\c2cccs2)c(=O)c1C(N)=O`: > 4 mM (inactive). The same measure for `Nc1ccc(CCC(=O)O)cc1`: > 4 mM (inactive); for `Cc1cc(C)n2nc(SCC(=O)c3ccccc3)nc2n1`: > 4 mM (inactive).

Regarding `O=C(Nc1nnc(-c2ccco2)o1)C1=COCCO1`, the Kd was > 4 mM (inactive).

Turning to `Cc1ccc(-c2nnn(CC(=O)O)n2)cc1`, the Kd is > 4 mM (inactive). Regarding `NC(=O)CSc1ccc(-c2ccco2)nn1`, the Kd is > 4 mM (inactive). In the case of `Nc1ccc(Cc2ccncc2)cc1`, the Kd was > 4 mM (inactive). The same measure for `CC(=O)Nc1ccc(-c2cn3ccsc3n2)cc1`: > 4 mM (inactive). The same measure for `COc1cccc(-c2nc3ccc(O)cc3c(=O)o2)c1`: > 4 mM (inactive). The same measure for `C/C=C(/C)C(=O)O[C@@H]1Cc2c(ccc3ccc(=O)oc23)OC1(C)C`: > 4 mM (inactive); for `CCC1(CC)C(=O)N=C(N)NC1=O`: > 4 mM (inactive). For `Cc1cc(=O)n2[nH]c(C)cc2n1`, the Kd is > 4 mM (inactive). The same measure for `O=C(Nc1cccnc1)c1cnn2cccnc12`: > 4 mM (inactive); for `O=C1CCCc2c1nc(-c1ccccc1)n2O`: > 4 mM (inactive). The same measure for `C=C1C([C@]2(C)C(CC(=O)OC)[C@@](C)(COC(C)=O)OC(=O)C[C@@H]2OC(C)=O)[C@@H](OC=O)[C@H](OC(=O)C(O)C(C)CC)[C@@]2(C)[C@H](c3ccoc3)CC(=O)C12O` (some centres not stated): > 4 mM (inactive); for `CC1(C)Cc2nc3n[nH]c(N)c3cc2CO1`: > 4 mM (inactive). The same measure for `c1ccc(C[N+]23CCN(CC2)CC3)cc1`: > 4 mM (inactive); for `NC(=O)C(=O)Nc1nc(-c2ccccc2)cs1`: > 4 mM (inactive); for `O=C1NC(=S)N/C1=C/c1ccsc1`: > 4 mM (inactive).

`Cc1cc(C(F)(F)F)n2nc(C(=O)O)c(Cl)c2n1`: the Kd was > 4 mM (inactive).

For `O=c1cc(-c2ccccc2)oc2cc(O)cc(O)c12`, the Kd is > 4 mM (inactive). The same measure for `CCN=Cc1c(O)n(-c2ccccc2C)c(=O)[nH]c1=O`: > 4 mM (inactive); for `CCOC(=O)Nc1ccc2c(C)cc(=O)oc2c1`: > 4 mM (inactive); for `COc1cc(O)c(C(C)=O)c(OC)c1`: > 4 mM (inactive). For the compound `Nc1ccc(Cc2ccc(N)cc2)cc1`, the Kd is > 4 mM (inactive).

Take `O=C1C2C3C=CC(C3)C2C(=O)N1CCCO` (configuration not stated): the Kd is > 4 mM (inactive). The same measure for `O=C(O)CC1NCCNC1=O` (configuration not stated): > 4 mM (inactive); for `Cc1csc(NC(=O)c2ccoc2C)n1`: > 4 mM (inactive). The same measure for `COC(=O)C[C@@H]1C2(C)C(=O)[C@@H](CC3=C4CC(=O)O[C@@H](c5ccoc5)[C@]4(C)CCC32)[C@H](OC(C)=O)C1(C)C` (some centres not stated): > 4 mM (inactive); for `Cc1nn2c(nc1=O)SCC(c1ccccc1)=N2`: > 4 mM (inactive); for `NC(=O)CSc1nc2[nH]ncc2c(=O)[nH]1`: > 4 mM (inactive). The same measure for `CS(=O)(=O)N/N=C/c1cccs1`: > 4 mM (inactive); for `NC[C@H]1O[C@H](O[C@H]2[C@H](O)[C@@H](O[C@H]3O[C@H](CO)[C@@H](O)[C@H](N)[C@H]3O)[C@H](N)C[C@@H]2N)[C@H](N)[C@@H](O)[C@@H]1O`: > 4 mM (inactive); for `c1ccn(Cc2ccncc2)c1`: > 4 mM (inactive).

On to `COc1c2ccccc2nc2occc12`, for which the Kd is > 4 mM (inactive). The same measure for `Cc1cc(NC(=O)c2ocnc2C)no1`: > 4 mM (inactive). The same measure for `O=c1c[n+]([O-])c2ccccc2n1OCc1ccccc1`: > 4 mM (inactive).

For the compound `CCOC(=O)C1CCN(Cc2ccccc2)CC1=O` (configuration not stated), the Kd is > 4 mM (inactive). The same measure for `OC[C@@H](O)[C@@H](O[C@@H]1O[C@H](CO)[C@@H](O)[C@H](O)[C@H]1O)[C@H](O)[C@@H](O)CO`: > 4 mM (inactive). The same measure for `COc1ccc(NS(=O)(=O)c2ccc(N)cc2)nn1`: > 4 mM (inactive); for `CC(=O)OC1CCC2(O)CC1(C)CCC1C2CC1(C)C` (configuration not stated): > 4 mM (inactive); for `COc1cc(O)c2c(=O)c(O)c(-c3ccc(O)c(O)c3)oc2c1`: > 4 mM (inactive).

As to `Cc1nc2ccccc2c(=O)n1-c1cccc(O)c1`, the Kd is > 4 mM (inactive). The same measure for `O=C(O)C1Cc2ccccc2O1` (configuration not stated): > 4 mM (inactive); for `Nc1cccc(NC(=O)c2ccco2)c1`: > 4 mM (inactive); for `O=C(c1cc2ccccc2o1)c1nc2c(n1O)CCCCC2`: > 4 mM (inactive). As to `CC(=O)CC1CCCCN1` (configuration not stated), the Kd was > 4 mM (inactive). The same measure for `O=C(O)C1CC2CC1CCC2O` (configuration not stated): > 4 mM (inactive); for `CC(C)C(C)/C=C/C(C)[C@H]1CCC2C3=CCC4CC(=O)CC[C@]4(C)C3CC[C@@]21C` (some centres not stated): > 4 mM (inactive); for `O[C@H]1C=C2CCN3Cc4cc5c(cc4C(C23)[C@@H]1O)OCO5` (some centres not stated): > 4 mM (inactive). Regarding `NC(=O)c1ccccc1N1CCCCC1`, the Kd was > 4 mM (inactive). As to `Nc1ccc2c(C(F)(F)F)cc(=O)oc2c1`, the Kd was > 4 mM (inactive).

Take `Cc1ccccc1CSc1nnc(C)n1N`: the Kd is > 4 mM (inactive). The same measure for `CS(=O)(=O)N1CCN(C(=O)c2ccccc2)CC1`: > 4 mM (inactive).

With `COc1cc(OC)c2c(OC)c(-c3ccc4c(c3)OCO4)c(=O)oc2c1`, the Kd was > 4 mM (inactive). Regarding `Cc1cc(=O)n2[nH]c(COc3ccccc3)nc2n1`, the Kd was > 4 mM (inactive). `OC1CCNC2CCCCC12` (configuration not stated): the Kd is > 4 mM (inactive). For the compound `S=C(NC1=NCCS1)Nc1ccccc1`, the Kd was > 4 mM (inactive). `Nc1ccc2c(c1)CCC2=O`: the Kd is > 4 mM (inactive). The same measure for `CN(C)C(=O)CSc1nc(N)cc(=O)[nH]1`: > 4 mM (inactive); for `OCC1COc2ccccc2O1` (configuration not stated): > 4 mM (inactive); for `CC1CCCN(C/C(O)=C(\C#N)c2nc3ccccc3[nH]2)C1` (configuration not stated): > 4 mM (inactive). Take `C#CCCCCCCCCCCCC(=O)CC(O)COC(C)=O` (configuration not stated): the Kd is > 4 mM (inactive). The same measure for `COc1ccc(C(N)=O)cc1NC(C)=O`: > 4 mM (inactive).
